Where two headings read alike, the source gives them in different places.
Experiments:
[1] = test system: Human Coronavirus 229E (HCoV-229E); assay: animal or person; format: in vivo
[2] = test system: Sendai strain of parainfluenza virus; format: in vivo
[3] = test system: Influenza A (H1N1) virus FM1 strain; assay: Mouse pneumonia model infected with influenza A (H1N1) virus FM1 strain (lung index); format: in vivo, ICR mice
Procedure: ICR mice were taken and randomly divided into: normal control group, model control group, ribavirin control group, compound 4, compound F1, compound F2, and compound F3 according to their weight class, and each drug was given in two dosage groups (10 mice in each group). Except for the normal control group, mice were slightly anesthetized with ether and infected with 15 LD50 H1N1 influenza virus liquid FM1 strain by nasal drops (30 μl per animal). The administration was started on the day of infection at 0.2 ml/10 g by gavage each time once a day for 4 days, and the normal control and model control groups were gavaged with distilled water under the same conditions. The mice were weighed and dissected on Day 5, and the lung was weighed to calculate lung index and lung index inhibition. The results were statistically processed using t-test for comparison between groups.
(§1) ICR mice were taken and randomly divided by weight class: normal control group, model control group, oseltamivir control group, compound 4, compound F4, compound F5, compound 5, and compound 7 according to their weight class, and each drug was given in two dosage groups (10 mice in each group). Except for the normal control group, mice were slightly anesthetized with ether and infected with 15 LD50 H1N1 influenza virus liquid (FM1/PR8 strain) by nasal drops (30 μl per each animal). The administration was started on the day of infection at 0.2 ml/10 g by gavage each time once a day for 4 days, and the normal control and model control groups were gavaged with distilled water under the same conditions. The mice were weighed and dissected on Day 5, and lung was weighed to calculate lung index and lung index inhibition. The results were statistically processed using t-test for comparison between groups.
(§2) ICR mice were taken and randomly divided into 9 groups according to the body weight: a normal control group, model control group, oseltamivir control group, and two dosage groups of Compound 9, Compound 12 and Compound 2, 10 mice in each group. Except the normal control group, mice were slightly anesthetized with ether and infected with 15 LD50 H1N1/PR8 influenza virus liquid by nasal drops at 30 μl per mouse. The administration was started on the day of infection, at 0.2 ml/10 g each time by gavage once a day for 4 days, and the normal control and model control groups were gavaged with distilled water under the same conditions. The mice were weighed and dissected on Day 5, and lungs were weighed to calculate lung index and lung index inhibition. The results were statistically processed using t-test for comparison between groups.

[4] = test system: Influenza A (H1N1) virus PR8 strain; assay: Mouse pneumonia model infected with influenza A (H1N1) virus PR8 strain (lung index); format: in vivo, ICR mice
Procedure: as §1, §2

[5] = Human coronavirus 229E, in Mus musculus, po, 96 h, Table 10 (Example 23), 7.5 mg/kg/d gavage for 4 days, read-out: inhibition rate (%)
[6] = Table 10 (Example 23), 7.5 mg/kg/d gavage for 4 days
[7] = Table 11 (Example 24), 7.5 mg/kg/d gavage for 4 days
[8] = Table 11 (Example 24), 15 mg/kg/d gavage for 4 days
[9] = Influenza A virus, H1N1, po, 96 h, Table 1 (Example 13), 25 mg/kg gavage once a day for 4 days, read-out: inhibition rate (%)
[10] = Influenza A virus, H1N1, po, 96 h, Table 1 (Example 13), 50 mg/kg gavage once a day for 4 days, read-out: inhibition rate (%)
[11] = Table 1 (Example 13), 25 mg/kg gavage once a day for 4 days
[12] = Table 1 (Example 13), 50 mg/kg gavage once a day for 4 days
[13] = Human coronavirus 229E, in Mus musculus, po, 96 h, Table 4 (Example 15), 40 mg/kg/d gavage for 4 days, read-out: inhibition rate (%)
[14] = Human coronavirus 229E, in Mus musculus, po, 96 h, Table 4 (Example 15), 50 mg/kg/d gavage for 4 days, read-out: inhibition rate (%)
[15] = Table 4 (Example 15), 40 mg/kg/d gavage for 4 days
[16] = Table 4 (Example 15), 50 mg/kg/d gavage for 4 days
[17] = Table 13 (Example 25), 7.5 mg/kg/d gavage for 4 days
[18] = Table 13 (Example 25), 15 mg/kg/d gavage for 4 days
[19] = Table 12 (Example 25), 7.5 mg/kg/d gavage for 4 days
[20] = Table 12 (Example 25), 15 mg/kg/d gavage for 4 days
[21] = Table 3 (Example 14), 27.5 mg/kg gavage once a day for 4 days
[22] = Table 7 (Example 18), 82.5 mg/kg/d gavage for 4 days
[23] = Table 11 (Example 24), 82.5 mg/kg/d gavage for 4 days

Structure (SMILES) | inhibition in vivo at 7.5 mg/kg/day [1, 5] | lung index [1, 6] | inhibition rate % [2, 7] | lung index [2, 7] | inhibition rate % [2, 8] | lung index [2, 8] | inhibition in vivo at 25 mg/kg [3, 9] | inhibition in vivo at 50 mg/kg [3, 10] | lung index [3, 11] | lung index [3, 12] | inhibition in vivo at 40 mg/kg/day [1, 13] | inhibition in vivo at 50 mg/kg/day [1, 14] | lung index [1, 15] | lung index [1, 16] | further results
CC(=O)N(CCOc1ccc2c(=O)c(-c3ccccc3)coc2c1)C1CC1 [Compound 10] | 25.6% | 0.85 ± 0.06 g lung weight × 100/g body weight | 7.43% | 0.83 ± 0.06 Lung weight * 100/body weight | −16.30% | 0.86 ± 0.05 Lung weight * 100/body weight |  |  |  |  |  |  |  |  | 
O=c1c(-c2ccccc2)coc2cc(O)ccc12 [Compound F1, reference compound] | 27.2% | 0.85 ± 0.07 g lung weight × 100/g body weight |  |  |  |  | 11.1% | 30% | 1.17 ± 0.09 | 1.06 ± 0.13 | 15.9% | 20.4% | 0.81 ± 0.06 g lung weight × 100/g body weight | 0.80 ± 0.05 g lung weight × 100/g body weight | 
COc1ccc(-c2coc3cc(O)ccc3c2=O)cc1O [Compound F3, reference compound] |  |  |  |  |  |  | 4.07% | -18.7% | 1.19 ± 0.31 | 1.31 ± 0.22 | 7.71% | 1.81% | 0.83 ± 0.09 g lung weight × 100/g body weight | 0.84 ± 0.06 g lung weight × 100/g body weight | 
O=c1c(-c2ccccc2)coc2cc(OCCNC3CCCCC3)ccc12 [Compound 7] |  |  |  |  |  |  |  |  |  |  |  |  |  |  | inhibition in vivo at 20 mg/kg ([3]; Influenza A virus, H1N1, po, 96 h, Table 2 (Example 14), 20 mg/kg gavage once a day for 4 days, read-out: inhibition rate (%)): 21%; inhibition in vivo at 40 mg/kg ([3]; Influenza A virus, H1N1, po, 96 h, Table 2 (Example 14), 40 mg/kg gavage once a day for 4 days, read-out: inhibition rate (%)): 30.2%; lung index ([3]; Table 2 (Example 14), 20 mg/kg gavage once a day for 4 days): 1.02 ± 0.12; lung index ([3]; Table 2 (Example 14), 40 mg/kg gavage once a day for 4 days): 0.98 ± 0.18; inhibition in vivo at 7.5 mg/kg/day ([1]; Human coronavirus 229E, in Mus musculus, po, 96 h, Table 5 (Example 16), 7.5 mg/kg/d gavage for 4 days, read-out: inhibition rate (%)): -17%; inhibition in vivo at 15 mg/kg/day ([1]; Human coronavirus 229E, in Mus musculus, po, 96 h, Table 5 (Example 16), 15 mg/kg/d gavage for 4 days, read-out: inhibition rate (%)): 41.6%; inhibition in vivo at 30 mg/kg/day ([1]; Human coronavirus 229E, in Mus musculus, po, 96 h, Table 5 (Example 16), 30 mg/kg/d gavage for 4 days, read-out: inhibition rate (%)): 15.8%; lung index ([1]; Table 5 (Example 16), 7.5 mg/kg/d gavage for 4 days): 0.80 ± 0.09 g lung weight × 100/g body weight; lung index ([1]; Table 5 (Example 16), 15 mg/kg/d gavage for 4 days): 0.74 ± 0.06 g lung weight × 100/g body weight; lung index ([1]; Table 5 (Example 16), 30 mg/kg/d gavage for 4 days): 0.76 ± 0.07 g lung weight × 100/g body weight
COc1ccc(-c2coc3cc(OCCNC4CC4)ccc3c2=O)cc1 [Compound 2] |  |  | −18.32% | 0.86 ± 0.04 Lung weight * 100/body weight | 3.27% | 0.84 ± 0.07 Lung weight * 100/body weight |  |  |  |  |  |  |  |  | inhibition rate % [3, 17]: 26.60%; lung index [3, 17]: 0.77 ± 0.074 Lung weight * 100/body weight; inhibition rate % [3, 18]: 72.90%; lung index [3, 18]: 0.73 ± 0.060 Lung weight * 100/body weight; inhibition rate % [4, 19]: 99.05%; lung index [4, 19]: 0.70 ± 0.110 Lung weight * 100/body weight; inhibition rate % [4, 20]: 60.90%; lung index [4, 20]: 0.74 ± 0.091 Lung weight * 100/body weight
NC(=O)c1ncn([C@@H]2O[C@H](CO)[C@@H](O)[C@H]2O)n1 [Ribavirin, ribavirin, reference compound] |  |  |  |  |  |  |  |  |  |  |  |  |  |  | inhibition in vivo at 82.5 mg/kg ([3]; Influenza A virus, H1N1, po, 96 h, Table 1 (Example 13), 82.5 mg/kg gavage once a day for 4 days, read-out: inhibition rate (%)): 49.6%; lung index ([3]; Table 1 (Example 13), 82.5 mg/kg gavage once a day for 4 days): 0.96 ± 0.16; inhibition rate % [4, 21]: 58.89%; lung index [4, 21]: 0.84 ± 0.10; inhibition rate % [2, 22]: 42.06%; lung index [2, 22]: 0.70 ± 0.03 lung weight/100 g body weight; inhibition rate % [2, 23]: 57.66%; lung index [2, 23]: 0.77 ± 0.04 Lung weight * 100/body weight

— US20250154121A1, “CYCLIC(ALKYL)(AMINO)ALKOXY-SUBSTITUTED ARYL-PYRONE COMPOUND AND USE THEREOF” (priority 2022, published 2025)
